Experimental data reported in US20250361230A1, “LATS Inhibitors and Uses Thereof” (The USA, as Represented by the Secretary, Dept. of Heath …, priority 2022, published 2025).

Experiments:
Assay type in all cases: biochemical
LATS2 = target: T1, LATS2 (Homo sapiens, UniProt Q9NRM7); experiment: RBC HotSpot kinase assay (33P-ATP, P81 filter-binding), LATS2; settings: Table 28, biochemical kinase assay; read-out: LATS2 IC50
T1 sequence (Q9NRM7 1-1088): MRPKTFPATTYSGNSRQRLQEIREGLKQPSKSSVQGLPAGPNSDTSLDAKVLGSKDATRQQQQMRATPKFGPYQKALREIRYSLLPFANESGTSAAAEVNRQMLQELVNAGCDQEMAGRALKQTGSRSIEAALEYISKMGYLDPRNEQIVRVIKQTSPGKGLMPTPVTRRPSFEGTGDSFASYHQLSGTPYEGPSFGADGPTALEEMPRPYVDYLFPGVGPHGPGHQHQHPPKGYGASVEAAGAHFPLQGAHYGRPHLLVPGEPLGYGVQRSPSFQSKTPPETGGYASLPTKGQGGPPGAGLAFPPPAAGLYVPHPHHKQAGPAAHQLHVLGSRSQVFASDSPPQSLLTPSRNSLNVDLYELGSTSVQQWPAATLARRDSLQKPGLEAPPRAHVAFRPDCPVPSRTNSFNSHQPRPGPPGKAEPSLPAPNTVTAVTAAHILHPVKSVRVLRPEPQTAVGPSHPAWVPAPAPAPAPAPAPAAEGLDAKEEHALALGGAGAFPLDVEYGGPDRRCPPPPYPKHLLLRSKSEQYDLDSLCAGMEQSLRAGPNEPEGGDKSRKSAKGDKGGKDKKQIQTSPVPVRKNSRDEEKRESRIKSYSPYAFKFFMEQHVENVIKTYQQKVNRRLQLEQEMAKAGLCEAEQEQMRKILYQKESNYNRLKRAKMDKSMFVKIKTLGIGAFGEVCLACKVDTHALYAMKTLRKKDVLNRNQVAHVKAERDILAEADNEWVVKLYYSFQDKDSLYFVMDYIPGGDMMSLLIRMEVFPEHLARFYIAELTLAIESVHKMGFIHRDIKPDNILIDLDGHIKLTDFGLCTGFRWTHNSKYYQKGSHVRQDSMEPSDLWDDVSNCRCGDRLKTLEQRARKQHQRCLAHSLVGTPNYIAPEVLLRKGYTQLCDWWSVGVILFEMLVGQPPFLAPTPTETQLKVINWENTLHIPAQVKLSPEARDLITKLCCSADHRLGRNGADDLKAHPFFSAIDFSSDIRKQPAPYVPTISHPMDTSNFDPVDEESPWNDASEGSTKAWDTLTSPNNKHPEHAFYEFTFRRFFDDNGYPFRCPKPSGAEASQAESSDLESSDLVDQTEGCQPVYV
Method: (§1) Biochemical kinase inhibitory data was obtained for various exemplary compounds prepared according to the above.
(§2) The reagents used are as follows: Base Reaction buffer; 20 mM Hepes (pH 7.5), 10 mM MgCl2, 1 mM EGTA, 0.01% Brij35, 0.02 mg/ml BSA, 0.1 mM Na3VO4, 2 mM DTT, […]. Required cofactors were added individually to each kinase reaction.
(§3) The reaction procedure was as follows: • 1) Substrates were prepared in freshly prepared Reaction Buffer. • 2) Any required cofactors were delivered to the substrate solution above. • 3) Kinase was delivered into the substrate solution and gently mixed. • 4) Compounds were delivered in 100% DMSO into the kinase reaction mixture by Acoustic technology (Echo550; nanoliter range), followed by incubation for 20 min at room temp. • 5) ^33P-ATP was delivered into the reaction mixture to initiate the reaction. • 6) The mixture was incubated for 2 hours at room temperature. • 7) Kinase activity was detected by P81 filter-binding method.
(§4) Using the above functional assay, the inhibitory activity of the compounds for LATS1/2 versus AKT was characterized. The assays were typically run in a 10-point curve, in singlet, to produce a titration curve from which an IC50 value was obtained.
(§5) The reagents used are as follows: Base Reaction buffer; 20 mM Hepes (pH 7.5), 10 mM MgCl2, 1 mM EGTA, 0.01% Brij35, 0.02 mg/ml BSA, 0.1 mM Na3VO4, 2 mM DTT, 1% DMSO. Required cofactors were added individually to each kinase reaction.
(§6) Biochemical kinase inhibitory data was obtained for various exemplary compounds prepared according to the above in accordance with the protocols described in Examples 4 and 8. All biological activities are IC50, in nM.

LATS1 = target: T2, LATS1 (Homo sapiens, UniProt O95835); experiment: RBC HotSpot kinase assay (33P-ATP, P81 filter-binding), LATS1; settings: Table 28, biochemical kinase assay; read-out: LATS1 IC50
T2 sequence (O95835 1-1130): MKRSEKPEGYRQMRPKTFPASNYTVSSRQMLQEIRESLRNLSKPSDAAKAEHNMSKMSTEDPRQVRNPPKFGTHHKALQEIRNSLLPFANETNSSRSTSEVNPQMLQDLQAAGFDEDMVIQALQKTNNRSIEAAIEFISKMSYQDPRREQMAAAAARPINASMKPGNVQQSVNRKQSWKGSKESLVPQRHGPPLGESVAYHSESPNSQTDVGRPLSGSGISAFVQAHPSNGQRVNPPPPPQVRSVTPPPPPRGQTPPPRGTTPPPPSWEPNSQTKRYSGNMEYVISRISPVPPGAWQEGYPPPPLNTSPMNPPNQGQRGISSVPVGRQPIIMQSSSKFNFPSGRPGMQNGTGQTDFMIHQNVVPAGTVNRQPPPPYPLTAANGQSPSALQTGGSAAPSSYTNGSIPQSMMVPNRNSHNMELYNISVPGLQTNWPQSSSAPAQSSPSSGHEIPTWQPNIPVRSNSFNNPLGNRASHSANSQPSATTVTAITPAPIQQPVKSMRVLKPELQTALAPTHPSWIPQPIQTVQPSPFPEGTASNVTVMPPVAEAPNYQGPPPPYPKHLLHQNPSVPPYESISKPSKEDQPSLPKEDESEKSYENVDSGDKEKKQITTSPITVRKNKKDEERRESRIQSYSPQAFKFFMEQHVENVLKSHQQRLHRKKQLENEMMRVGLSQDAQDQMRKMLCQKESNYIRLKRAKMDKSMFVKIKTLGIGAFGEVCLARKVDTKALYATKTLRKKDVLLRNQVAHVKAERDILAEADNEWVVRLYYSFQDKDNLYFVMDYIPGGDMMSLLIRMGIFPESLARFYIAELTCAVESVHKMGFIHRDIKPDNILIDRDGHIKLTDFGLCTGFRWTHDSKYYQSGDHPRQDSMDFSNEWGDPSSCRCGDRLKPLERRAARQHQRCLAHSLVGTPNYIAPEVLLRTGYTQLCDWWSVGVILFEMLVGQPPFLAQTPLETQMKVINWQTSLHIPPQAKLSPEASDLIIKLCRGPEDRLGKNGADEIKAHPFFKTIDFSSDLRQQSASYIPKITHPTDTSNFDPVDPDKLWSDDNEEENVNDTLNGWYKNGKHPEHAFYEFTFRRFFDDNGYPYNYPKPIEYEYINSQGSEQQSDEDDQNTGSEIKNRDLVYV
Method: as §1, §2, §3, §4, §5, §6

AKT = AKT (Homo sapiens, UniProt P31749); experiment: RBC HotSpot kinase assay (33P-ATP, P81 filter-binding), AKT; settings: Table 28, biochemical kinase assay; read-out: AKT IC50
Chain of AKT (P31749 whole entry): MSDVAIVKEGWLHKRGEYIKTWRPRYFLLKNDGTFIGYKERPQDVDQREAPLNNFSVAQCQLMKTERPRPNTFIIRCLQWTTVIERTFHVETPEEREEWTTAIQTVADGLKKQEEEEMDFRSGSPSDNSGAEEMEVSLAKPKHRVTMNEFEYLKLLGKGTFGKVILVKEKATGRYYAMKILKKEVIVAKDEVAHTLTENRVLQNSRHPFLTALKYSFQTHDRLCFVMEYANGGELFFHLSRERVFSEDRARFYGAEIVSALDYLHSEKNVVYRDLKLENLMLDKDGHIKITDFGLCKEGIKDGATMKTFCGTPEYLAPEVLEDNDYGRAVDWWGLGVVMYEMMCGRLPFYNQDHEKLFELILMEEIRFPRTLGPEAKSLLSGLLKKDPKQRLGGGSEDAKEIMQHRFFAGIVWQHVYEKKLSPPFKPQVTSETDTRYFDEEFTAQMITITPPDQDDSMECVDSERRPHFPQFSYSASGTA
Method: as §1, §2, §3, §4, §5, §6

Row | IC50 (LATS2) [nM] | IC50 (LATS1) [nM] | IC50 (AKT) [nM] | SMILES
1 | 3.6 | 3 | 374 | C[C@@H]1CN(C(CF)CF)C[C@H](C)C1(O)c1ccc(-c2ccnc3[nH]cc(F)c23)cc1Cl (stereo partly drawn) [Compound 53, (3S,5R)-4-(2-chloro-4-(3-fluoro-1H-pyrrolo[2,3-b]pyridin-4-yl)phenyl)-1-(1,3-difluoropropan-2-yl)-3,5-dimethylpiperidin-4-ol]
2 | 4250 | 2080 | > 10000 | Cc1cc(-c2ccnc3[nH]cc(F)c23)ncc1C1(O)[C@H](C)CN(C2CCS(=O)(=O)CC2)C[C@@H]1C (stereo partly drawn) [Compound 56, 4-((3R,5S)-4-(6-(3-fluoro-1H-pyrrolo[2,3-b]pyridin-4-yl)-4-methylpyridin-3-yl)-4-hydroxy-3,5-dimethylpiperidin-1-yl)tetrahydro-2H-thiopyran 1,1-dioxide]
3 | 10.3 | 21.6 | 1470 | C[C@@H]1CN(C(=O)[C@H]2CCCN2)C[C@H](C)[C@@]1(O)c1c(F)cc(-c2ccnc3[nH]cc(F)c23)cc1F [Compound 59, 4-(4-((3S,4R,5R)-1-(L-prolyl)-4-hydroxy-3,5-dimethylpiperidin-4-yl)-3,5-difluorophenyl)-3-fluoro-1H-pyrrolo[2,3-b]pyridine]
4 | 4.3 | 19.7 | 5880 | Cc1cc(-c2ccnc3[nH]cc(F)c23)cc(F)c1[C@@]1(O)[C@H](C)CN(C(=O)C2(N)CC(F)(F)C2)C[C@@H]1C [Compound 62, (1-amino-3,3-difluorocyclobutyl) ((3S,4s,5R)-4-(2-fluoro-4-(3-fluoro-1H-pyrrolo[2,3-b]pyridin-4-yl)-6-methylphenyl)-4-hydroxy-3,5-dimethylpiperidin-1-yl)methanone]
5 | 3.4 | 8.5 | 677 | Cc1cc(-c2ccnc3[nH]cc(F)c23)cc(F)c1[C@@]1(O)[C@H](C)CN(C(=O)[C@@H]2CCCN2)C[C@@H]1C [Compound 63, 4-(4-((3S,4R,5R)-1-(L-prolyl)-4-hydroxy-3,5-dimethylpiperidin-4-yl)-3-fluoro-5-methylphenyl)-3-fluoro-1H-pyrrolo[2,3-b]pyridine]
6 | 3.6 | 6.7 | 3140 | Cc1cc(-c2ccnc3[nH]cc(F)c23)cc(F)c1[C@@]1(O)[C@H](C)CN(C(=O)[C@@H]2CC(F)(F)CN2)C[C@@H]1C [Compound 64, ((S)-4,4-difluoropyrrolidin-2-yl)((3S,4R,5R)-4-(2-fluoro-4-(3-fluoro-1H-pyrrolo[2,3-b]pyridin-4-yl)-6-methylphenyl)-4-hydroxy-3,5-dimethylpiperidin-1-yl)methanone]
7 | 3.2 | 8.7 | 1180 | Cc1cc(-c2ccnc3[nH]cc(F)c23)cc(F)c1[C@@]1(O)[C@H](C)CN(C(=O)[C@@H]2C[C@H](F)CN2)C[C@@H]1C [Compound 65, ((3S,4R,5R)-4-(2-fluoro-4-(3-fluoro-1H-pyrrolo[2,3-b]pyridin-4-yl)-6-methylphenyl)-4-hydroxy-3,5-dimethylpiperidin-1-yl)((2S,4S)-4-fluoropyrrolidin-2-yl)methanone]
8 | 3 | 13 | 673 | Cc1cc(-c2ccnc3[nH]cc(F)c23)cc(F)c1[C@@]1(O)[C@H](C)CN(C(=O)[C@@H]2C[C@@H](F)CN2)C[C@@H]1C [Compound 66, ((3S,4R,5R)-4-(2-fluoro-4-(3-fluoro-1H-pyrrolo[2,3-b]pyridin-4-yl)-6-methylphenyl)-4-hydroxy-3,5-dimethylpiperidin-1-yl)((2S,4R)-4-fluoropyrrolidin-2-yl)methanone]
9 | 2.8 | 8.7 | 577 | CNCC(=O)N1C[C@@H](C)[C@](O)(c2c(C)cc(-c3ccnc4[nH]cc(F)c34)cc2F)[C@@H](C)C1 [Compound 67, 1-((3S,4s,5R)-4-(2-fluoro-4-(3-fluoro-1H-pyrrolo[2,3-b]pyridin-4-yl)-6-methylphenyl)-4-hydroxy-3,5-dimethylpiperidin-1-yl)-2-(methylamino) ethan-1-one]
10 | 6.6 | 13.8 | 1670 | Cc1cc(-c2ccnc3[nH]cc(F)c23)cc(F)c1[C@@]1(O)[C@H](C)CN(C(=O)[C@@H]2COCCN2)C[C@@H]1C [Compound 68, ((3S,4R,5R)-4-(2-fluoro-4-(3-fluoro-1H-pyrrolo[2,3-b]pyridin-4-yl)-6-methylphenyl)-4-hydroxy-3,5-dimethylpiperidin-1-yl)((S)-morpholin-3-yl)methanone]
11 | 3.4 | 8.5 | 677 | Cc1cc(-c2ccnc3[nH]cc(F)c23)cc(F)c1[C@@]1(O)[C@H](C)CN(C(=O)[C@@H]2C[C@@H](O)CN2)C[C@@H]1C [Compound 69, ((3S,4R,5R)-4-(2-fluoro-4-(3-fluoro-1H-pyrrolo[2,3-b]pyridin-4-yl)-6-methylphenyl)-4-hydroxy-3,5-dimethylpiperidin-1-yl)((2S,4R)-4-hydroxypyrrolidin-2-yl)methanone]
12 | 2.5 | 7.8 | 376 | Cc1cc(-c2ccnc3[nH]cc(F)c23)cc(F)c1[C@@]1(O)[C@H](C)CN(C(=O)[C@@H]2C[C@H](O)CN2)C[C@@H]1C [Compound 70, ((3S,4R,5R)-4-(2-fluoro-4-(3-fluoro-1H-pyrrolo[2,3-b]pyridin-4-yl)-6-methylphenyl)-4-hydroxy-3,5-dimethylpiperidin-1-yl)((2S,4S)-4-hydroxypyrrolidin-2-yl)methanone]
